SMILES strings stand for the structures. Where “and” joins values, the source holds several entries; their conditions need not be identical. Identical values can stand only once. Numbers after ± are expanded uncertainties.

Series [1] is described as follows: molar enthalpy of vaporization or sublimation. Particulars: 298.15 K, vacuum sublimation.
The conditions of series [2]: Crystal, Calculated from knudsen effusion weight loss.

Turning to `CC(=O)c1ccc(Cl)cc1Cl` [2',4'-dichloroacetophenone], in series [1] (Crystal), the molar enthalpy came to 15.2 ± 0.669 kcal/mol.
For `CC(=O)c1cc(Cl)ccc1Cl` [2',5'-dichloroacetophenone], the molar enthalpy in series [1] (Liquid) amounted to 15.8 ± 0.717 kcal/mol.
Consider `CC(=O)c1ccc(Cl)c(Cl)c1` [3',4'-dichloroacetophenone], for which the “vapor or sublimation pressure” value in series [2] (293.25 K) is 0.0001703 ± 8.5e-06 kPa and 0.0001647 ± 8.3e-06 kPa and 0.0001655 ± 8.3e-06 kPa; in series [2] (295.17 K), 0.0002238 ± 1.1e-05 kPa and 0.0002145 ± 1.1e-05 kPa and 0.000213 ± 1.1e-05 kPa; in series [2] (297.09 K) it was 0.0002738 ± 1.4e-05 kPa and 0.0002832 ± 1.4e-05 kPa and 0.0002774 ± 1.4e-05 kPa; in series [2] (299.21 K), 0.0003484 ± 1.7e-05 kPa and 0.0003522 ± 1.8e-05 kPa and 0.0003546 ± 1.8e-05 kPa; in series [2] (301.16 K) it was 0.0004547 ± 2.3e-05 kPa and 0.0004516 ± 2.3e-05 kPa and 0.0004492 ± 2.3e-05 kPa; in series [2] (303.08 K), 0.0005694 ± 2.9e-05 kPa and 0.0005819 ± 2.9e-05 kPa and 0.0005785 ± 2.9e-05 kPa. The “vapor or sublimation pressure” value is 0.0007368 ± 3.7e-05 kPa and 0.0007202 ± 3.6e-05 kPa and 0.0007224 ± 3.6e-05 kPa in series [2] (305.19 K); 0.000944 ± 4.7e-05 kPa and 0.0009302 ± 4.7e-05 kPa and 0.0009113 ± 4.6e-05 kPa in series [2] (307.16 K); 0.001174 ± 0.00012 kPa and 0.001186 ± 0.00012 kPa and 0.001176 ± 0.00012 kPa in series [2] (309.09 K). The molar enthalpy in series [1] (Crystal) was determined as 21.7 ± 0.765 kcal/mol.

Broadly, the vapor or sublimation pressure is the pressure of vapour in equilibrium with the condensed phase.
